Drawing on patent US12239643B2, “Therapeutic agent for inflammatory diseases, autoimmune diseases, fibrotic diseases, and cancer diseases” (MEIJI SEIKA PHARMA CO., LTD., priority 2018, dated 2025), this text covers IC50 for 31 compounds.

Some results are limits rather than exact numbers.

One assay has as its system PDE4. Put plainly: Evaluation of PDE4 inhibitory activity, scintillation proximity assay. Type of assay: biochemical. To be noted: scintillation proximity assay; class symbols of Evaluation 1; read-out: PDE4 Inhibitory Activity (concentration for the inhibition rate of 50%, IC50), Evaluation 1. Here is the method: The BDE4 inhibitory activity was measured using scintillation proximity assay (SPA) as follows. First, a test compound dissolved in dimethyl sulfoxide was diluted 1:10 in reaction buffer solution which contained 50 mM of Tris-HCl with pH 7.4, 8.3 mM of MgCl2, 1.7 mM of EGTA, and 3 mg/mL of bovine serum albumin (BSA). Then, 10 μL of the diluted solution was added in a 96-well assay plate. Moreover, 50 μL of PDE4 (enzyme preparation) diluted 1:375 in the reaction buffer solution was added, and then 40 μL of [2,8-^3H]-adenosine-3′,5′-cyclic phosphate triethylammonium salt diluted 1:1000 in the reaction buffer solution was added. The mixture was allowed to stand at room temperature for 120 minutes. Thereafter, […] of RNA binding YSi-SPA beads suspension containing ZnSO4 was added and the mixture was allowed to stand at room temperature for 15 minutes, followed by adsorption of the enzyme reaction product to the beads. After that, the radioactivity was measured using a liquid scintillation counter for a 96-well plate. The mixture without the enzyme preparation added but only the reaction buffer solution added is a blank, and the mixture with the enzyme preparation added and only dimethyl sulfoxide added instead of the test compound is a control.
In addition, the PDE4 inhibitory activity (concentration that inhibits PDE4 activity by 50%=concentration for the inhibition rate of 50% (IC50)) of the test compound was calculated from the inhibition curves based on the inhibition rates for various concentrations of the test compound.
For `N#CCOC(c1cc(-c2nccs2)c2oc(N3CC4CC(C3)N4)nc2c1)C(F)(F)F` (stereo not shown) [Example 152, 2-(1-(2-(3,6-Diazabicyclo[3.1.1]heptan-3-yl)-7-(thiazol-2-yl)benzo[d]oxazol-5-yl)-2,2,2-trifluoroethoxy)acetonitrile], the IC50 is less than 100 nM. Same read-out and setting: with `NS(=O)(=O)c1cc(-c2nccs2)c2oc(N3CC4CC(C3)N4)nc2c1` [Example 58, 2-(3,6-Diazabicyclo[3.1.1]heptan-3-yl)-7-(thiazol-2-yl)benzo[d]oxazole-5-sulfonamide] the figure was less than 100 nM; with `FC(F)(F)c1c(Cl)cc(-c2ccccn2)c2oc(N3CC4CCC(C3)N4)nc12` [Example 11, 2-(3,8-Diazabicyclo[3.2.1]octan-3-yl)-5-chloro-7-(pyridin-2-yl)-4-(trifluoromethyl)benzo[d]oxazole], less than 100 nM. As to `CC(O)(c1ccc(-c2nccs2)c2oc(N3CC4CCC(C3)N4)nc12)C(F)F` (stereo not shown) [Example 129, 2-(2-(3,8-Diazabicyclo[3.2.1]octan-3-yl)-7-(thiazol-2-yl)benzo[d]oxazol-4-yl)-1,1-difluoropropan-2-ol], the IC50 was less than 100 nM.

On to `CC(=O)Nc1ccc(-c2nccs2)c2oc(N3CC4CC(C3)N4)nc12` [Example 35, N-(2-(3,6-diazabicyclo[3.1.1]heptan-3-yl)-7-(thiazol-2-yl)benzo[d]oxazol-4-yl)acetamide], for which the IC50 was in the range of 100 to 1000 nM.

For `CCOC(=O)c1ccc(-c2nccs2)c2oc(N3CC4CCC(C3)N4)nc12` [Example 112, Ethyl 2-(3,8-diazabicyclo[3.2.1]octan-3-yl)-7-(thiazol-2-yl)benzo[d]oxazole-4-carboxylate], the IC50 is less than 100 nM. With `FC(F)(F)Oc1cc(-c2nccs2)c2oc(N3CC4CCCC(C3)N4)nc2c1` [Example 55, 2-(3,9-Diazabicyclo[3.3.1]nonan-3-yl)-7-(thiazol-2-yl)-5-(trifluoromethoxy)benzo[d]oxazole], the IC50 was less than 100 nM.

`CSc1cc(-c2nccs2)c2oc(N3CC4CCCC(C3)N4)nc2c1` [Example 41, 2-(3,9-Diazabicyclo[3.3.1]nonan-3-yl)-5-(methylthio)-7-(thiazol-2-yl)benzo[d]oxazole]: the IC50 is less than 100 nM.

In the case of `CC(C)(O)c1cc(-c2nccs2)c2oc(N3CC4CCCC(C3)N4)nc2c1C(F)(F)F` [Example 166, 2-(2-(3,9-Diazabicyclo[3.3.1]nonan-3-yl)-7-(thiazol-2-yl)-4-(trifluoromethyl)benzo[d]oxazol-5-yl)propan-2-ol], the IC50 was less than 100 nM. On the same count and under the same terms, next, `CC(=O)Nc1cc(-c2nccs2)c2oc(N3CC4CCC(C3)N4)nc2c1` [Example 50, N-(2-(3,8-diazabicyclo[3.2.1]octan-3-yl)-7-(thiazol-2-yl)benzo[d]oxazol-5-yl)acetamide]: less than 100 nM; `FC(F)(F)COc1cc(-c2nccs2)c2oc(N3CC4CCC(C3)N4)nc2c1` [Example 66, 2-(3,8-Diazabicyclo[3.2.1]octan-3-yl)-7-(thiazol-2-yl)-5-(2,2,2-trifluoroethoxy)benzo[d]oxazole]: less than 100 nM; `FC(F)(F)c1c(Cl)cc(-c2ccccn2)c2oc(N3CC4CC(C3)N4)nc12` [Example 13, 2-(3,6-Diazabicyclo[3.1.1]heptan-3-yl)-5-chloro-7-(pyridin-2-yl)-4-(trifluoromethyl)benzo[d]oxazole]: less than 100 nM. Still for that read-out and setting: next, `FC(F)(F)Oc1c(Cl)cc(-c2ccccn2)c2oc(N3CC4CCC(C3)N4)nc12` [Example 7, 2-(3,8-Diazabicyclo[3.2.1]octan-3-yl)-5-chloro-7-(pyridin-2-yl)-4-(trifluoromethoxy)benzo[d]oxazole]: less than 100 nM; `FC(F)(F)c1c(Cl)cc(-n2cccn2)c2oc(N3CC4CCC(C3)N4)nc12` [Example 15, 2-(3,8-Diazabicyclo[3.2.1]octan-3-yl)-5-chloro-7-(1H-pyrazol-1-yl)-4-(trifluoromethyl)benzo[d]oxazole]: less than 100 nM; `FC(F)(F)Oc1c(Cl)cc(-c2ccco2)c2oc(N3CC4CCC(C3)N4)nc12` [Example 6, 2-(3,8-Diazabicyclo[3.2.1]octan-3-yl)-5-chloro-7-(furan-2-yl)-4-(trifluoromethoxy)benzo[d]oxazole]: less than 100 nM.

With `OCCOC(c1cc(-c2nccs2)c2oc(N3CC4CCC(C3)N4)nc2c1)C(F)(F)F` (stereo not shown) [Example 149, 2-(1-(2-(3,8-Diazabicyclo[3.2.1]octan-3-yl)-7-(thiazol-2-yl)benzo[d]oxazol-5-yl)-2,2,2-trifluoroethoxy)ethan-1-ol], the IC50 was less than 100 nM.

The same assay, now with this note: scintillation proximity assay; read-out: PDE4 Inhibitory Activity (Evaluation 1; concentration for the inhibition rate of 50%).
Consider `OC(c1cc(-c2nccs2)c2oc(N3CC4CC(C3)N4)nc2c1OC(F)(F)F)C(F)F` (stereo not shown) [Example 293, 1-(2-(3,6-Diazabicyclo[3.1.1]heptan-3-yl)-7-(thiazol-2-yl)-4-(trifluoromethoxy)benzo[d]oxazol-5-yl)-2,2-difluoroethan-1-ol], for which the IC50 was less than 100 nM. The same measure, in the same setting: with `OC1(c2cc(-c3nccs3)c3oc(N4CC5CC(C4)N5)nc3c2OC(F)(F)F)CC1` [Example 269, 1-(2-(3,6-Diazabicyclo[3.1.1]heptan-3-yl)-7-(thiazol-2-yl)-4-(trifluoromethoxy)benzo[d]oxazol-5-yl)cyclopropan-1-ol] the figure was less than 100 nM. Same read-out and setting: next, `CC(O)c1cc(-c2nccs2)c2oc(N3CC4CCC(C3)N4)nc2c1C(F)(F)F` (stereo not shown) [Example 181, 1-(2-(3,8-Diazabicyclo[3.2.1]octan-3-yl)-7-(thiazol-2-yl)-4-(trifluoromethyl)benzo[d]oxazol-5-yl)ethan-1-ol]: less than 100 nM; `COC(C)(C)COC(c1ccc(-c2nccs2)c2oc(N3CC4CC(C3)N4)nc12)C(F)(F)F` (stereo not shown) [Example 281, 2-(3,6-Diazabicyclo[3.1.1]heptan-3-yl)-7-(thiazol-2-yl)-4-(2,2,2-trifluoro-1-(2-methoxy-2-methylpropoxy)ethyl)benzo[d]oxazole]: less than 100 nM; `COC(C)(C)c1cc(-c2cscn2)c2oc(N3CC4CC(C3)N4)nc2c1OC(F)(F)F` [Example 287, 2-(3,6-Diazabicyclo[3.1.1]heptan-3-yl)-5-(2-methoxypropan-2-yl)-7-(thiazol-4-yl)-4-(trifluoromethoxy)benzo[d]oxazole]: less than 100 nM. Same read-out and setting: next, `CN(CCO)S(=O)(=O)c1ccc(-c2nccs2)c2oc(N3CC4CC(C3)N4)nc12` [Example 389, 2-(3,6-Diazabicyclo[3.1.1]heptan-3-yl)-N-(2-hydroxyethyl)-N-methyl-7-(thiazol-2-yl)benzo[d]oxazole-4-sulfonamide]: less than 100 nM.

Regarding `OC(c1cc(-c2nccs2)c2oc(N3CC4CCC(C3)N4)nc2c1OC(F)(F)F)C(F)F` (stereo not shown) [Example 206, 1-(2-(3,8-Diazabicyclo[3.2.1]octan-3-yl)-7-(thiazol-2-yl)-4-(trifluoromethoxy)benzo[d]oxazol-5-yl)-2,2-difluoroethan-1-ol], the IC50 was less than 100 nM. For the compound `CC(O)c1cc(-c2nccs2)c2oc(N3CC4CC(C3)N4)nc2c1OC(F)(F)F` (stereo not shown) [Example 272, 1-(2-(3,6-Diazabicyclo[3.1.1]heptan-3-yl)-7-(thiazol-2-yl)-4-(trifluoromethoxy)benzo[d]oxazol-5-yl)ethan-1-ol], the IC50 is less than 100 nM. Still for that read-out and setting: with `CC(C)(O)COc1ccc(-c2nccs2)c2oc(N3CC4CC(C3)N4)nc12` [Example 279, 1-((2-(3,6-Diazabicyclo[3.1.1]heptan-3-yl)-7-(thiazol-2-yl)benzo[d]oxazol-4-yl)oxy)-2-methylpropan-2-ol] the figure was less than 100 nM. Still for that read-out and setting: next, `c1csc(-c2ccc(OC3CCCOC3)c3nc(N4CC5CCC(C4)N5)oc23)n1` (stereo not shown) [Example 262, 2-(3,8-Diazabicyclo[3.2.1]octan-3-yl)-4-((tetrahydro-2H-pyran-3-yl)oxy)-7-(thiazol-2-yl)benzo[d]oxazole]: less than 100 nM. As to `C[C@H](O)COc1ccc(-c2nccs2)c2oc(N3CC4CC(C3)N4)nc12` [Example 260, (2S)-1-((2-(3,6-diazabicyclo[3.1.1]heptan-3-yl)-7-(thiazol-2-yl)benzo[d]oxazol-4-yl)oxy)propan-2-ol], the IC50 was less than 100 nM. On to `OCCOC(c1ccc(-c2nccs2)c2oc(N3CC4CC(C3)N4)nc12)C(F)(F)F` (stereo not shown) [Example 227, 2-(1-(2-(3,6-Diazabicyclo[3.1.1]heptan-3-yl)-7-(thiazol-2-yl)benzo[d]oxazol-4-yl)-2,2,2-trifluoroethoxy)ethan-1-ol], for which the IC50 was less than 100 nM. Consider `OC(c1ccc(-c2nccs2)c2oc(N3CC4CCC(C3)N4O)nc12)C(F)(F)F` (stereo not shown) [Example 378, 3-(7-(Thiazol-2-yl)-4-(2,2,2-trifluoro-1-hydroxyethyl)benzo[d]oxazol-2-yl)-3,8-diazabicyclo[3.2.1]octan-8-ol], for which the IC50 was 100 to 1000 nM. For the compound `OC1(COC(c2ccc(-c3nccs3)c3oc(N4CC5CC(C4)N5)nc23)C(F)(F)F)CC1` (stereo not shown) [Example 232, 1-((1-(2-(3,6-Diazabicyclo[3.1.1]heptan-3-yl)-7-(thiazol-2-yl)benzo[d]oxazol-4-yl)-2,2,2-trifluoroethoxy)methyl)cyclopropan-1-ol], the IC50 was less than 100 nM.

Regarding `O=C(NCc1ccccc1)c1ccc(-c2nccs2)c2oc(N3CC4CC(C3)N4)nc12` [Example 361, N-benzyl-2-(3,6-diazabicyclo[3.1.1]heptan-3-yl)-7-(thiazol-2-yl)benzo[d]oxazole-4-carboxamide], the IC50 is less than 100 nM.
